What was measured:
[1] = Hydrolytic stability assay at pH 2; assay type: physicochemical; conditions: buffer pH 2, 37° C.
Method: The hydrolytic stability assay investigates the stability of a compound in an aqueous buffer system. Standard solution stability assay is run in 0.05 M Phosphate buffer at pH 7.4 (pH of blood plasma) at 37° C. As compounds in the GI tract are exposed to a wide variety of pHs any relevant pH (as pH 2 to simulate the acidic condition of the GI tract in the following experiment) can be chosen. Compounds are incubated in relevant solution at 37° C. and analyzed by HPLC immediately after incubation and after 1, 2 and 24 hrs. Degradation rate (decay in %) is calculated by relating peak areas after 1, 2 and 24 hrs to the time zero injection.
Compound is available as 10 mM in DMSO (solution 1). 2.5 μL of solution 1 is dissolved in 1 mL acetonitrile leading to solution 2. Poorly soluble compounds may demand another dilution step of solution 2 (1:5 and 1:10 respectively) in Acetonitrile). Solution 2 is incubated at 37° C. in a tempered HPLC autosampler. 1 mL buffer pH 2 is transferred into an HPLC vial. 100 μL of solution 2 is added to the buffer pH 2 solution and mixed thoroughly. Immediately after mixing the combined solution is injected into the HPLC to give the time zero injection. Injections are repeated after 1, 2 and 24 hrs.
The degradation rate (decay in %) is calculated using HPLC software Millennium and Excel respectively.

Mps-1 kinase [2] = molecular target: T1, Mps-1 kinase (Homo sapiens, UniProt P33981); assay: Mps-1 kinase assay with 10 μM ATP (TR-FRET)
T1 sequence (P33981 1-857): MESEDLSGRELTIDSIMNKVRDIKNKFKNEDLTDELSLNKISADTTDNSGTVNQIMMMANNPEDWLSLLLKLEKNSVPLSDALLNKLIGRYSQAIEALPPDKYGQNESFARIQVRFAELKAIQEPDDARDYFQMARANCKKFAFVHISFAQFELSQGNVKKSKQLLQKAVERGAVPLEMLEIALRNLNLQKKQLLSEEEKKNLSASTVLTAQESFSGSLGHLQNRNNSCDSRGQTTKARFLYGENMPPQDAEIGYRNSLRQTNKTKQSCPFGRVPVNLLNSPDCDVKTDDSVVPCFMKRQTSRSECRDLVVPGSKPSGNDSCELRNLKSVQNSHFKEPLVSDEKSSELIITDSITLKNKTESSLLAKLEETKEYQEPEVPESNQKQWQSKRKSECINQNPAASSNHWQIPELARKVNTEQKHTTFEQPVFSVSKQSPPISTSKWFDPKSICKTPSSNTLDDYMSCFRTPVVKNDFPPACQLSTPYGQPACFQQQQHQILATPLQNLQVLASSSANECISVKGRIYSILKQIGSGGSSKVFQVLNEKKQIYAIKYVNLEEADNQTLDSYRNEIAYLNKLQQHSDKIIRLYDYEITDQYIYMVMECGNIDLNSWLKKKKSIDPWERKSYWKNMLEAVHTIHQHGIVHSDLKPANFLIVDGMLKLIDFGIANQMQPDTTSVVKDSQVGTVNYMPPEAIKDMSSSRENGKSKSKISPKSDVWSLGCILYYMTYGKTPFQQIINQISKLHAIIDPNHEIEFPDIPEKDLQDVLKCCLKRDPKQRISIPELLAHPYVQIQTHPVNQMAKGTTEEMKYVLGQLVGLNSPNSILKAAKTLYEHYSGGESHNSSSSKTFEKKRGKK

Mps-1 kinase [3] = molecular target: T1, Mps-1 kinase; assay: Mps-1 kinase assay with 2 mM ATP (TR-FRET)
[4] = comparison compounds specified in WO2011/063908

Row | Hydrolysis at pH 2; Decay in % after 24 h [1, 4] | Hydrolysis at pH 2; Decay in % after 24 h ([1]; compounds of the invention) [%] | IC50 (Mps-1 kinase [2]) [nM] | IC50 (Mps-1 kinase [3]) [nM] | SMILES
1 |  | <10 | ≤ 1 |  | COc1cc(C(=O)NC(C)(C)CO)ccc1Nc1nc2ccc(-c3ccc(C(=O)NCc4ccc(F)cc4)c(Cl)c3)cn2n1 [Example 05.1, 2-chloro-N-(4-fluorobenzyl)-4-[2-({4-[(1-hydroxy-2-methylpropan-2-yl)-carbamoyl]-2-methoxyphenyl}amino)[1,2,4]triazolo[1,5-α]pyridin-6-yl]-benzamide]
2 |  | <10 | ≤ 1 |  | CCNC(=O)c1ccc(Nc2nc3ccc(-c4ccc(C(=O)NCC5CC5)cc4)cn3n2)c(OCC)c1 [Example 06.1, 4-[(6-{4-[(cyclopropylmethyl)carbamoyl]phenyl}[1,2,4]triazolo[1,5-α]-pyridin-2-yl)amino]-3-ethoxy-N-ethylbenzamide]
3 |  |  | ≤ 1 | 7.4 | COc1cc(S(C)(=O)=O)ccc1Nc1nc2ccc(-c3ccc(C(=O)NCc4ccc(C)cc4)cc3)cn2n1 [Example 12.76, 4-(2-{[2-methoxy-4-(methyl-sulfonyl)phenyl]amino}-[1,2,4]triazolo[1,5-a]pyridin-6-yl)-N-(4-methyl-benzyl)benzamide]
4 |  |  | ≤ 1 | 11 | Cc1ccc(CNC(=O)c2ccc(-c3ccc4nc(Nc5ccc(S(C)(=O)=O)cc5C)nn4c3)cc2)cc1 [Example 12.77, N-(4-methylbenzyl)-4-(2-{[2-methyl-4-(methylsulfonyl)-phenyl]amino}[1,2,4]triazolo [1,5-a]pyridin-6-yl)-benzamide]
5 |  |  | ≤ 1 | 23 | COc1cc(C(=O)NCC(F)(F)F)ccc1Nc1nc2ccc(-c3ccc(C(=O)NCc4ccc(F)cc4F)cc3)cn2n1 [Example 12.79, 4-[(6-{4-[(2,4-difluoro-benzyl)carbamoyl]phenyl}-[1,2,4]triazolo[1,5-a]pyridin-2-yl)amino]-3-methoxy-N-(2,2,2-trifluoro-ethyl)benzamide]
6 |  |  | ≤ 1 | 18 | Cc1cc(-c2ccc3nc(Nc4ccc(S(C)(=O)=O)cc4OCC(F)(F)F)nn3c2)ccc1C(=O)NCc1ccc(F)cc1F [Example 12.80, N-(2,4-difluorobenzyl)-2-methyl-4-(2-{[4-(methyl-sulfonyl)-2-(2,2,2-trifluoro-ethoxy)phenyl]amino}[1,2,4]triazolo[1,5-a]pyridin-6-yl)-benzamide]
7 |  |  | ≤ 1 | 7.3 | COc1cc(C(C)(C)O)ccc1Nc1nc2ccc(-c3ccc(C(=O)NCc4ccc(F)cc4)c(OC)c3)cn2n1 [Example 12.81, N-(4-fluorobenzyl)-4-(2-{[4-(2-hydroxypropan-2-yl)-2-methoxyphenyl]amino}-[1,2,4]triazolo[1,5-a]pyridin-6-yl)-2-methoxybenzamide]
8 |  |  | ≤ 1 | ≤ 1 | COc1cc(S(C)(=N)=O)ccc1Nc1nc2ccc(-c3ccc(NC(=O)Cc4ccc(F)cc4)cc3)cn2n1 (stereo not drawn) [Example 12.82, 2-(4-fluorophenyl)-N-[4-(2-{[2-methoxy-4-(S-methylsulfonimidoyl)phenyl]-amino}[1,2,4]triazolo[1,5-α]pyridin-6-yl)phenyl]acetamide]
9 |  |  | ≤ 1 | 1.8 | COc1cc(S(C)(=N)=O)ccc1Nc1nc2ccc(-c3ccc(C(=O)NCc4ccc(F)cc4)cc3)cn2n1 (stereo not drawn) [Example 12.83, N-(4-fluorobenzyl)-4-(2-{[2-methoxy-4-(S-methylsulfonimidoyl)phenyl]-amino}[1,2,4]triazolo[1,5-α]pyridin-6-yl)benzamide]
10 |  |  | ≤ 1 | ≤ 1 | COc1cc(CO)ccc1Nc1nc2ccc(-c3ccc(NC(=O)Cc4ccc(F)cc4)cc3)cn2n1 [Example 12.84, 2-(4-fluorophenyl)-N-[4-(2-{[4-(hydroxymethyl)-2-methoxyphenyl]amino}-[1,2,4]triazolo[1,5-α]pyridin-6-yl)phenyl]acetamide]
11 |  |  | ≤ 1 | 2.2 | COc1cc(CO)ccc1Nc1nc2ccc(-c3ccc(C(=O)NCc4ccc(F)cc4)cc3)cn2n1 [Example 12.85, N-(4-fluorobenzyl)-4-(2-{[4-(hydroxymethyl)-2-methoxyphenyl]amino}-[1,2,4]triazolo[1,5-α]pyridin-6-yl)benzamide]

Further lines, the compound ahead of its results:

Row | SMILES | Hydrolysis at pH 2; Decay in % after 24 h [1, 4] | Hydrolysis at pH 2; Decay in % after 24 h ([1]; compounds of the invention) [%] | IC50 (Mps-1 kinase [2]) [nM] | IC50 (Mps-1 kinase [3]) [nM]
12 | N#Cc1ccccc1Nc1nc2ccc(-c3ccc(NC(=O)Cc4ccc(F)cc4)cc3)cn2n1 [Example 1, reference compound] | ≧90% |  |  | 
13 | CCN(CC)C(=O)c1ccc(Nc2nc3ccc(-c4ccc(NC(=O)Cc5ccc(F)cc5)cc4)cn3n2)c(OC)c1 [Example 01.1, N,N-diethyl-4-{[6-(4-{[(4-fluorophenyl)acetyl]amino}phenyl)[1,2,4]-triazolo[1,5-α]pyridin-2-yl]amino}-3-methoxybenzamide] |  | <10 | ≤ 1 | 1.2
14 | COc1cc(C#N)ccc1Nc1nc2ccc(-c3ccc(NC(=O)Cc4ccc(F)cc4)cc3)cn2n1 [Example 01.2, N-(4-{2-[(4-cyano-2-methoxyphenyl)amino][1,2,4]triazolo[1,5-α]pyridin-6-yl}phenyl)-2-(4-fluorophenyl)acetamide] |  | <10 | ≤ 1 | 4.1
15 | CCOc1cc(F)ccc1Nc1nc2ccc(-c3ccc(NC(=O)Cc4ccc(F)cc4)cc3)cn2n1 [Example 01.3, N-(4-{2-[(2-ethoxy-4-fluorophenyl)amino][1,2,4]triazolo[1,5-α]pyridin-6-yl}phenyl)-2-(4-fluorophenyl)acetamide] |  | <10 | ≤ 1 | 1.1
16 | CCNC(=O)c1ccc(Nc2nc3ccc(-c4ccc(NC(=O)Cc5ccc(F)cc5)cc4)cn3n2)c(OC)c1 [Example 01.4, N-ethyl-4-{[6-(4-{[(4-fluorophenyl)acetyl]amino}phenyl)[1,2,4]triazolo[1,5-α]pyridin-2-yl]amino}-3-methoxybenzamide] |  | <10 | ≤ 1 | ≤ 1
17 | COc1cc(S(C)(=O)=O)ccc1Nc1nc2ccc(-c3ccc(NC(=O)Cc4ccc(F)cc4)cc3)cn2n1 [Example 01.15, 2-(4-fluorophenyl)-N-[4-(2-{[2-methoxy-4-(methylsulfonyl)phenyl]amino}-[1,2,4]triazolo[1,5-α]pyridin-6-yl)phenyl]acetamide] |  | <10 |  | 
18 | N#Cc1c(F)cccc1Nc1nc2ccc(-c3ccc(NC(=O)Cc4ccccc4)cc3)cn2n1 [Example 2, reference compound] | ≧20% |  | ≤ 1 | 
19 | N#Cc1ccccc1Nc1nc2ccc(-c3ccc(NC(=O)Cc4ccccc4F)cc3)cn2n1 [Example 3, reference compound] | ≧70% |  | ≤ 1 | 
20 | N#Cc1ccccc1Nc1nc2ccc(-c3ccc(NC(=O)Cc4ccc(F)c(F)c4)cc3)cn2n1 [Example 4, reference compound] | ≧70% |  | ≤ 1 | 
21 | COc1cccc(CC(=O)Nc2ccc(-c3ccc4nc(Nc5ccccc5C#N)nn4c3)cc2)c1 [Example 5, reference compound] | ≧70% |  | ≤ 1 | 
22 | N#Cc1ccccc1Nc1nc2ccc(-c3ccc(NC(=O)Cc4ccccc4)cc3)cn2n1 [Example 6, reference compound] | ≧90% |  |  | 
23 | N#Cc1ccccc1Nc1nc2ccc(-c3ccc(NC(=O)Cc4cccc(F)c4)cc3)cn2n1 [Example 7, reference compound] | ≧70% |  | 1.1 | 
24 | N#Cc1ccccc1Nc1nc2ccc(-c3ccc(NC(=O)Cc4cccc(C(F)(F)F)c4)cc3)cn2n1 [Example 8, reference compound] | ≧70% |  | 1.4 | 
25 | Cc1ccc(C#N)c(Nc2nc3ccc(-c4ccc(NC(=O)Cc5ccccc5)cc4)cn3n2)c1 [Example 10, reference compound] | ≧70% |  | 2.1 | 

From patent US20140120087A1, “TRIAZOLOPYRIDINES” (BAYER INTELLECTUAL PROPERTY GMBH, priority 2011, published 2014)
